{
  "source": "paper PMC3507948",
  "about": "“Origin and Evolution of Retinoid Isomerization Machinery in Vertebrate Visual Cycle: Hint from Jawless Vertebrates” (PLoS ONE, 2012)",
  "type_in_all_cases": "cell-based",
  "key": {"Lamprey RPE65": {"target": "T1, Lamprey RPE65 (Petromyzon marinus, UniProt L0ATZ0)", "T1 construct": "pVITRO2 with bovine CRALBP, expressed in HEK293-F cells with LRAT", "T1 sequence (L0ATZ0 1-537)": "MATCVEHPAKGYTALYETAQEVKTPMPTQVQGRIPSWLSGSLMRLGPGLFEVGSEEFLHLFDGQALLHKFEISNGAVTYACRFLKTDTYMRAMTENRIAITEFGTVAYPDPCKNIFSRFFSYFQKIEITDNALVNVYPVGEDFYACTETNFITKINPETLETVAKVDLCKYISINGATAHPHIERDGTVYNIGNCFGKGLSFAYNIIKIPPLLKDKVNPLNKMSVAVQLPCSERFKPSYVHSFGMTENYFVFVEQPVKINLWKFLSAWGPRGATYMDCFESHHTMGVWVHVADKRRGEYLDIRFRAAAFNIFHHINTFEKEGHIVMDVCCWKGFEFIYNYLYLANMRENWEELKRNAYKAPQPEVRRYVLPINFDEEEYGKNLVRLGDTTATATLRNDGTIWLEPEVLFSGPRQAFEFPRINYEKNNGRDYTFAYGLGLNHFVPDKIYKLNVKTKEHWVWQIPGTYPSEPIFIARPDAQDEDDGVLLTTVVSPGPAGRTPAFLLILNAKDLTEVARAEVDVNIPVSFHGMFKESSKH", "assay": "HEK293-F minimal visual cycle assay, normal-phase HPLC of saponified retinoids", "settings": "co-expressed lamprey LRATb or bovine LRAT and bovine CRALBP; 2.5 µM all-trans retinol fed for 5 h; direct substrate is the retinyl ester formed in the cells"}, "Lamprey LRATb": {"target": "T2, Lamprey LRATb (Petromyzon marinus, UniProt A0AAJ7TIF3)", "T2 construct": "gene LOC116947134; full-length ORF cloned from adult female lamprey RPE (852 bp PCR product), 7-glycine tract at aa 160-166; pVITRO3, expressed in HEK293-F cells", "T2 sequence (A0AAJ7TIF3 1-274)": "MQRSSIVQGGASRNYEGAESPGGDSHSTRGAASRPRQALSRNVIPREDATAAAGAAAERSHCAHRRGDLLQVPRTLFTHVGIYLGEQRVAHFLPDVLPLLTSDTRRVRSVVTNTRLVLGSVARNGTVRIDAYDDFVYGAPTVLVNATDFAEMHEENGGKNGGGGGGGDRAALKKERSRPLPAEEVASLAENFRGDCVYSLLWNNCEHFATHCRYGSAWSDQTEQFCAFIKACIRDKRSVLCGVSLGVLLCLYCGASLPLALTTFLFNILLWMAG", "assay": "retinol esterification in HEK293-F cells, HPLC, retinyl esters as % of total retinoids", "settings": "with 50 µM A922500 to block endogenous DGAT1; all-trans retinol added to cells"}, "Ciona BCMOa (Ci-RPE65) [1]": {"target": "T3, Ciona BCMOa (Ci-RPE65) (Ciona intestinalis, UniProt Q2PE71)", "T3 construct": "ORF from synthetic pUC57/ciBCMOa (Genscript), cloned in pBadTOPO, expressed in carotenoid-accumulating E. coli", "T3 sequence (Q2PE71 1-553)": "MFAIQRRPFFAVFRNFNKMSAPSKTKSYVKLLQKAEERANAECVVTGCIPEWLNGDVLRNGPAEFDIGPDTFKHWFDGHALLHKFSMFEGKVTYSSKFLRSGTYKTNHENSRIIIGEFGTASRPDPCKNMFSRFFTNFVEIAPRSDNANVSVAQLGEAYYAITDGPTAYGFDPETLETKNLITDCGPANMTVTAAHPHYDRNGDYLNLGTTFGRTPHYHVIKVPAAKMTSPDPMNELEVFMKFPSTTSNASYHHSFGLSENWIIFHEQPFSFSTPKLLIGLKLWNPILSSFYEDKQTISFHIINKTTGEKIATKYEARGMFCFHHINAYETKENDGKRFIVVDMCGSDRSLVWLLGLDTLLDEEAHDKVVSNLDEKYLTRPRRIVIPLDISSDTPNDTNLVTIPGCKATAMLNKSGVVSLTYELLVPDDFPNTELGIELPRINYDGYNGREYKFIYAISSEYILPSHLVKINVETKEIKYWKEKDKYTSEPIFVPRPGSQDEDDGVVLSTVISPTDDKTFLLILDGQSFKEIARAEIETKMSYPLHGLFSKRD", "assay": "lycopene loss in lycopene-accumulating E. coli, reverse-phase HPLC", "settings": "arabinose induction, 18 h; no retinal detected; data not shown"}, "[2]": {"target": "T4, Ciona BCMOb (Ci-BCMO1; ci-BCO) (Ciona intestinalis, UniProt Q2PE72)", "T4 construct": "expressed in carotenoid-accumulating E. coli", "T4 sequence (Q2PE72 1-524)": "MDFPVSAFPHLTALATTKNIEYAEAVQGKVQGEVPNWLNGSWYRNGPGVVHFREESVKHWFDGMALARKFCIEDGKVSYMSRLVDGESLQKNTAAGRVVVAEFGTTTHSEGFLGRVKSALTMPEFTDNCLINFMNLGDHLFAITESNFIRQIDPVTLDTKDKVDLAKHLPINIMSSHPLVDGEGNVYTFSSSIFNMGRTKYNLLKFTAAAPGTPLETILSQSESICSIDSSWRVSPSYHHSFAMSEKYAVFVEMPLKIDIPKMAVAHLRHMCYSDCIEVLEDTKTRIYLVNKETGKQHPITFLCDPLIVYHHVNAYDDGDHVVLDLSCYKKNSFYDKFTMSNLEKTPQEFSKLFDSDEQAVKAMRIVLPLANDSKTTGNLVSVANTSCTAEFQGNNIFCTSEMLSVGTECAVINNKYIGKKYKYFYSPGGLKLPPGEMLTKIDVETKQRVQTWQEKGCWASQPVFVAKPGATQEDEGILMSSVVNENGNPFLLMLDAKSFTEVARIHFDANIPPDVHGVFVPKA", "assay": "lycopene loss in lycopene-accumulating E. coli, reverse-phase HPLC", "settings": "arabinose induction; no retinal detected; printed as β-carotene or lycopene"}, "[3]": {"target": "T4, Ciona BCMOb (Ci-BCMO1; ci-BCO)", "assay": "β-carotene loss in β-carotene-accumulating E. coli, reverse-phase HPLC", "settings": "arabinose induction; no retinal detected"}, "Ciona BCMOa (Ci-RPE65) [4]": {"target": "T3, Ciona BCMOa (Ci-RPE65)", "assay": "β-carotene loss in β-carotene-accumulating E. coli, reverse-phase HPLC", "settings": "arabinose induction, 18 h; no retinal detected"}},
  "data": [
    {"smiles": "CC1=C(/C=C/C(C)=C/C=C\\C(C)=C\\CO)C(C)(C)CCC1", "note": "[11-cis retinol]", "values": [
      {"measurement": "HEK293-F minimal visual cycle assay, normal-phase HPLC of saponified retinoids", "setting": "Lamprey RPE65", "result": "Cells transfected with lamprey RPE65 and lamprey LRATb were also able to produce 11-cis retinol"}
    ]},
    {"smiles": "CC1=C(/C=C/C(C)=C/C=C/C(C)=C/CO)C(C)(C)CCC1", "note": "[all-trans retinol]", "values": [
      {"measurement": "retinol esterification in HEK293-F cells, HPLC, retinyl esters as % of total ret", "setting": "Lamprey LRATb", "result": "Catalytic activity of Lamprey LRATb in HEK293F cells in the presence of specific DGAT1 inhibitor"}
    ]},
    {"smiles": "CC(C)=CCC/C(C)=C/C=C/C(C)=C/C=C/C(C)=C/C=C/C=C(C)/C=C/C=C(C)/C=C/C=C(\\C)CCC=C(C)C", "note": "[lycopene]", "values": [
      {"measurement": "lycopene loss in lycopene-accumulating E. coli, reverse-phase HPLC", "setting": "Ciona BCMOa (Ci-RPE65) [1]", "result": "the amount of lycopene (data not shown) or β-carotene in induced cells decreased significantly"},
      {"measurement": "lycopene loss in lycopene-accumulating E. coli, reverse-phase HPLC", "setting": "[2]", "result": "Quantification of β-carotene or lycopene in induced cell culture transformed with Ciona BCMOb (ci-BCO)"}
    ]},
    {"smiles": "CC1=C(/C=C/C(C)=C/C=C/C(C)=C/C=C/C=C(C)/C=C/C=C(C)/C=C/C2=C(C)CCCC2(C)C)C(C)(C)CCC1", "note": "[β-carotene]", "values": [
      {"measurement": "β-carotene loss in β-carotene-accumulating E. coli, reverse-phase HPLC", "setting": "[3]", "result": "Ciona BCMOb (ci-BCO) also demonstrated significant carotenoid cleavage activity"},
      {"measurement": "β-carotene loss in β-carotene-accumulating E. coli, reverse-phase HPLC", "setting": "Ciona BCMOa (Ci-RPE65) [4]", "result": "the amount of lycopene (data not shown) or β-carotene in induced cells decreased significantly"}
    ]}
  ]
}
